# Like-named read-outs stand apart in the source and are kept apart here.
# How the values were obtained:
# [1] = system: Key Broadleaf Weed and Crop Species; assay: Post-emergent Test II herbicidal activity (Table 5); assay type: in vivo; conditions: post-emergence, 336 h, 14 days after application; for pest or weed control at 70 g/ha: application rate 70 g ai/ha; for pest or weed control at 140 g/ha: application rate 140 g ai/ha
# Procedure, shortened: (§1)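 Visual injury ratings (0 = no injury, 100 = complete kill) were taken 14 d after treatment, relative to untreated plants. Seedlings at the first–second true leaf stage received overhead spray at 187 L/ha; the highest rate was serially diluted to ½×, ¼×, ⅛× and 1/16×.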
# [2] = system: Key Grass and Sedge Weeds as well as Grass Crops; assay: Post-emergent Test II herbicidal activity (Table 6); assay type: in vivo; conditions: post-emergence, 336 h
# Procedure, shortened: as §1
# [3] = ABUTH: velvetleaf (Abutilon theophrasti), read-out: Visual Growth Reduction (%) 14 Days After Application, ABUTH
# [4] = AMARE: redroot pigweed (Amaranthus retroflexus), read-out: Visual Growth Reduction (%) 14 Days After Application, AMARE
# [5] = BRSNN: oilseed-rape, canola (Brassica napus), read-out: Visual Growth Reduction (%) 14 Days After Application, BRSNN
# [6] = CHEAL: lambsquarters (Chenopodium album), read-out: Visual Growth Reduction (%) 14 Days After Application, CHEAL
# [7] = EPHHL: wild poinsettia (Euphorbia heterophylla), read-out: Visual Growth Reduction (%) 14 Days After Application, EPHHL
# [8] = HELAN: sunflower (Helianthus annuus), read-out: Visual Growth Reduction (%) 14 Days After Application, HELAN
# [9] = VIOTR: wild pansy (Viola tricolor), read-out: Visual Growth Reduction (%) 14 Days After Application, VIOTR
smiles,measurement,setting,value
C#Cc1ccc(-c2nc(N)c(OC)c(C(=O)O)n2)c(F)c1F [Compound 154],melting point,,142 to 144 °C
same,pest or weed control at 70 g/ha,[1]; [3],0 to 29%
same,pest or weed control at 140 g/ha,[1]; [3],45 to 59%
same,pest or weed control at 70 g/ha,[1]; [4],0 to 29%
same,pest or weed control at 140 g/ha,[1]; [4],0 to 29%
same,pest or weed control at 70 g/ha,[1]; [5],0 to 29%
same,pest or weed control at 140 g/ha,[1]; [5],60 to 74%
same,pest or weed control at 70 g/ha,[1]; [6],0 to 29%
same,pest or weed control at 140 g/ha,[1]; [6],45 to 59%
same,pest or weed control at 70 g/ha,[1]; [7],95 to 100%
same,pest or weed control at 140 g/ha,[1]; [7],95 to 100%
same,pest or weed control at 70 g/ha,[1]; [8],75 to 84%
same,pest or weed control at 140 g/ha,[1]; [8],75 to 84%
same,pest or weed control at 70 g/ha,[1]; [9],0 to 29%
same,pest or weed control at 140 g/ha,[1]; [9],0 to 29%
same,pest or weed control at 70 g/ha,"[2]; Triticum aestivum, TRZSS (wheat), application rate 70 g ai/ha, read-out: Visual Growth Reduction (%) 14 Days After Application, TRZSS",0 to 29%
same,pest or weed control at 140 g/ha,"[2]; Triticum aestivum, TRZSS (wheat), application rate 140 g ai/ha, read-out: Visual Growth Reduction (%) 14 Days After Application, TRZSS",0 to 29%
same,pest or weed control at 70 g/ha,"[2]; CYPES: yellow nutsedge (Cyperus esculentus), application rate 70 g ai/ha, read-out: Visual Growth Reduction (%) 14 Days After Application, CYPES",0 to 29%
same,pest or weed control at 140 g/ha,"[2]; CYPES: yellow nutsedge (Cyperus esculentus), application rate 140 g ai/ha, read-out: Visual Growth Reduction (%) 14 Days After Application, CYPES",0 to 29%
same,pest or weed control at 70 g/ha,"[2]; DIGSA: crabgrass (Digitaria sanguinalis), application rate 70 g ai/ha, read-out: Visual Growth Reduction (%) 14 Days After Application, DIGSA",0 to 29%
same,pest or weed control at 140 g/ha,"[2]; DIGSA: crabgrass (Digitaria sanguinalis), application rate 140 g ai/ha, read-out: Visual Growth Reduction (%) 14 Days After Application, DIGSA",0 to 29%
same,pest or weed control at 70 g/ha,"[2]; ECHCG: barnyardgrass (Echinochloa crus-galli), application rate 70 g ai/ha, read-out: Visual Growth Reduction (%) 14 Days After Application, ECHCG",45 to 59%
same,pest or weed control at 140 g/ha,"[2]; ECHCG: barnyardgrass (Echinochloa crus-galli), application rate 140 g ai/ha, read-out: Visual Growth Reduction (%) 14 Days After Application, ECHCG",45 to 59%
same,pest or weed control at 70 g/ha,"[2]; ORYSA: rice (Oryza sativa), application rate 70 g ai/ha, read-out: Visual Growth Reduction (%) 14 Days After Application, ORYSA",0 to 29%
same,pest or weed control at 140 g/ha,"[2]; ORYSA: rice (Oryza sativa), application rate 140 g ai/ha, read-out: Visual Growth Reduction (%) 14 Days After Application, ORYSA",0 to 29%
same,pest or weed control at 70 g/ha,"[2]; SETFA: giant foxtail (Setaria faberi), application rate 70 g ai/ha, read-out: Visual Growth Reduction (%) 14 Days After Application, SETFA",0 to 29%
same,pest or weed control at 140 g/ha,"[2]; SETFA: giant foxtail (Setaria faberi), application rate 140 g ai/ha, read-out: Visual Growth Reduction (%) 14 Days After Application, SETFA",0 to 29%
same,pest or weed control at 70 g/ha,"[2]; SORVU: grain sorghum (Sorghum vulgare), application rate 70 g ai/ha, read-out: Visual Growth Reduction (%) 14 Days After Application, SORVU",0 to 29%
same,pest or weed control at 140 g/ha,"[2]; SORVU: grain sorghum (Sorghum vulgare), application rate 140 g ai/ha, read-out: Visual Growth Reduction (%) 14 Days After Application, SORVU",0 to 29%
same,pest or weed control at 70 g/ha,"[2]; ZEAMX: maize, corn (Zea mays), application rate 70 g ai/ha, read-out: Visual Growth Reduction (%) 14 Days After Application, ZEAMX",0 to 29%
same,pest or weed control at 140 g/ha,"[2]; ZEAMX: maize, corn (Zea mays), application rate 140 g ai/ha, read-out: Visual Growth Reduction (%) 14 Days After Application, ZEAMX",0 to 29%
Nc1c(F)c(-c2ccc(I)c(F)c2)nc(C(=O)O)c1Cl [Compound 157],melting point,,140 to 150 °C (dec.)
same,pest or weed control at 70 g/ha,[1]; [3],85 to 94%
same,pest or weed control at 140 g/ha,[1]; [3],85 to 94%
same,pest or weed control at 70 g/ha,[1]; [4],95 to 100%
same,pest or weed control at 140 g/ha,[1]; [4],95 to 100%
same,pest or weed control at 70 g/ha,[1]; [5],95 to 100%
same,pest or weed control at 140 g/ha,[1]; [5],95 to 100%
same,pest or weed control at 70 g/ha,[1]; [6],95 to 100%
same,pest or weed control at 140 g/ha,[1]; [6],95 to 100%
same,pest or weed control at 70 g/ha,[1]; [7],95 to 100%
same,pest or weed control at 140 g/ha,[1]; [7],95 to 100%
same,pest or weed control at 70 g/ha,[1]; [8],95 to 100%
same,pest or weed control at 140 g/ha,[1]; [8],95 to 100%
same,pest or weed control at 70 g/ha,[1]; [9],95 to 100%
same,pest or weed control at 140 g/ha,[1]; [9],95 to 100%
same,pest or weed control at 70 g/ha,"[2]; CYPES: yellow nutsedge (Cyperus esculentus), 70 g ai/ha, read-out: Visual Growth Reduction (%) 14 Days After Application, CYPES",45 to 59%
same,pest or weed control at 140 g/ha,"[2]; CYPES: yellow nutsedge (Cyperus esculentus), 140 g ai/ha, read-out: Visual Growth Reduction (%) 14 Days After Application, CYPES",45 to 59%
same,pest or weed control at 70 g/ha,"[2]; DIGSA: crabgrass (Digitaria sanguinalis), 70 g ai/ha, read-out: Visual Growth Reduction (%) 14 Days After Application, DIGSA",75 to 84%
same,pest or weed control at 140 g/ha,"[2]; DIGSA: crabgrass (Digitaria sanguinalis), 140 g ai/ha, read-out: Visual Growth Reduction (%) 14 Days After Application, DIGSA",85 to 94%
same,pest or weed control at 70 g/ha,"[2]; ECHCG: barnyardgrass (Echinochloa crus-galli), 70 g ai/ha, read-out: Visual Growth Reduction (%) 14 Days After Application, ECHCG",95 to 100%
same,pest or weed control at 140 g/ha,"[2]; ECHCG: barnyardgrass (Echinochloa crus-galli), 140 g ai/ha, read-out: Visual Growth Reduction (%) 14 Days After Application, ECHCG",95 to 100%
same,pest or weed control at 70 g/ha,"[2]; ORYSA: rice (Oryza sativa), crop, 70 g ai/ha, read-out: Visual Growth Reduction (%) 14 Days After Application, ORYSA",0 to 29%
same,pest or weed control at 140 g/ha,"[2]; ORYSA: rice (Oryza sativa), crop, 140 g ai/ha, read-out: Visual Growth Reduction (%) 14 Days After Application, ORYSA",0 to 29%
same,pest or weed control at 70 g/ha,"[2]; SETFA: giant foxtail (Setaria faberi), 70 g ai/ha, read-out: Visual Growth Reduction (%) 14 Days After Application, SETFA",95 to 100%
same,pest or weed control at 140 g/ha,"[2]; SETFA: giant foxtail (Setaria faberi), 140 g ai/ha, read-out: Visual Growth Reduction (%) 14 Days After Application, SETFA",95 to 100%
same,pest or weed control at 70 g/ha,"[2]; SORVU: grain sorghum (Sorghum vulgare), 70 g ai/ha, read-out: Visual Growth Reduction (%) 14 Days After Application, SORVU",85 to 94%
same,pest or weed control at 140 g/ha,"[2]; SORVU: grain sorghum (Sorghum vulgare), 140 g ai/ha, read-out: Visual Growth Reduction (%) 14 Days After Application, SORVU",95 to 100%
same,pest or weed control at 70 g/ha,"[2]; TRZSS (wheat, Triticum aestivum), crop, 70 g ai/ha, read-out: Visual Growth Reduction (%) 14 Days After Application, TRZSS",45 to 59%
same,pest or weed control at 140 g/ha,"[2]; TRZSS (wheat, Triticum aestivum), crop, 140 g ai/ha, read-out: Visual Growth Reduction (%) 14 Days After Application, TRZSS",45 to 59%
same,pest or weed control at 70 g/ha,"[2]; ZEAMX: maize, corn (Zea mays), crop, 70 g ai/ha, read-out: Visual Growth Reduction (%) 14 Days After Application, ZEAMX",95 to 100%
same,pest or weed control at 140 g/ha,"[2]; ZEAMX: maize, corn (Zea mays), crop, 140 g ai/ha, read-out: Visual Growth Reduction (%) 14 Days After Application, ZEAMX",95 to 100%
